Measured values published in patent publication US20060035810A1, “Regulation of ins(3456)p4 signalling by a reversible kinase phosphatase and methods and compositions related thereto” (priority 2002, published 2006).

Tests used:
[1] = system: calcium-activated Cl− channels; assay: Whole-cell Cl− current in CFPAC-1 cells (bio-assay for Ins(3,4,5,6)P4); assay type: cell-based, human; conditions: 100 μM introduced into CFPAC-1 cells; control 54±3 pA/pF
Procedure: T84 cells were detached by incubation with 0.25% (w/v) trypsin/0.02% (w/v) EDTA for 5-6 min. After trypsin removal, 200 μl aliquots (1.5×10^6/ml) were seeded into the circular wells (area=0.45 cm^2) of permeable supports, made by gluing (Silastic® sealant, Dow Corning, Midland, Mich.) a Sylgard® ring to filters composed of mixed cellulose esters (Millipore Corp., Bedford, Mass.). Seeded supports were floated on culture medium and incubated for 11-14 days before being mounted in modified Snapwell holders in Using chambers (EasyMount System, Physiologics Instruments, San Diego, Calif.). Transcellular Cl^− flux was then recorded as the short-circuit current as previously described. The resistance of the monolayers were (vector) 346±44 ohms/cm^2 (mean±se, n=12) and (kinase) 354±62 ohms/cm^2 (mean±se, n=12). Whole-cell Cl^− currents in CFPAC—I cells were measured at +40 mV as previously described using an intracellular Ca^2+-BAPTA buffer to clamp free [Ca^2+] to 0.5 μM [8]. One possibility is that Ins(3,4,5,6)P4 originates by phosphorylation of an InsP3 precursor. […] Control whole-cell Cl^− current (54±3 pA/pF, n—17) was reduced to 24±3 pA/pF (n=7) by 10 μM Ins(3,4,5,6)P4.

[2] = target: T1, Recombinant human Ins(3,4,5,6)P4 1-kinase (Homo sapiens, UniProt Q13572); assay: Inositol phosphate kinase activity assay (HPLC); assay type: biochemical; conditions: for product of phosphorylation by the kinase: 50 uM substrate, 3.4 ug enzyme, 4 hr, 37° C., 5 mM ATP
T1 construct: made in house; host or cells: E. coli
T1 sequence (Q13572 1-414): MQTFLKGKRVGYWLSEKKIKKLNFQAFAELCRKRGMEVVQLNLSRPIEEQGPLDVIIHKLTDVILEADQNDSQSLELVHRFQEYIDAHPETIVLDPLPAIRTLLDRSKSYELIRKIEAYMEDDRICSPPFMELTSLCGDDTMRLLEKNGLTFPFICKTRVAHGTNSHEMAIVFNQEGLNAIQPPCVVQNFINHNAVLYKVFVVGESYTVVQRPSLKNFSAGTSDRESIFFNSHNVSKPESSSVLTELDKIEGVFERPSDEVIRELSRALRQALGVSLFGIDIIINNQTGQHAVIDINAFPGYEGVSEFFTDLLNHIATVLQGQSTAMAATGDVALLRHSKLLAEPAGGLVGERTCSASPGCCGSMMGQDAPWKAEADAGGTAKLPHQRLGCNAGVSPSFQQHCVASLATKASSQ
Procedure: (§1) Inositol phosphate phosphatase activity was assayed in buffer containing 100 mM KCl, 20 mM HEPES pH 7.2, 5 mM ADP, 6 mM MgSO4, 0.3 mg/ml bovine serum albumin. Assays were acid-quenched, neutralized and analyzed by HPLC using a Synchropak Q100 columm (Caffrey et al., “Expanding Coincident Signaling by PTEN through its Inositol 1,3,4,5,6-Pentakisphosphate 3-phosphatase Activity,” FEBS Lett 499: 6-10 (2001)); 1 ml fractions were collected for 70 min., followed by 0.5 ml fractions. Inositol phosphate kinase activity was assayed in buffer containing 100 mM KCl, 20 mM HEPES pH 7.2, 5 mM ATP, 10 mM phosphocreatine, 6 mM MgSO4, 10 μg/ml creatine phosphokinase (Calbiochem), 0.3 mg/ml bovine serum albumin. Some assays were acid-quenched and analyzed by HPLC using a Synchropak Q100 column. Other reactions were heat-inactivated (95° C., 3 min) and analyzed by a metal dye detection, HPLC method (Mayr, “A novel metal-dye detection sysytem permits picomolar-range h.p.l.c. analysis of inositol polyphosphates from non-radioactively labelled cell or tissue specimens,” Biochem J 254: 585-591 (1988); Adelt et al., “Enzyme-assisted total synthesis of the optical antipodes D-myo-inositol 3,4,5-trisphosphate and D-myo-inositol 1,5,6-trisphosphate: aspects of their structure-activity relationship to biologically active inositol phosphates,” J Med Chem 42: 1262-1273 (1999)).
Activity of 3.4 ug of inositol 3,4,5,6-tetrakisphosphate 1-kinase was assayed for 4 hr. at 37° C. in 200 μl buffer containing 100 mM KCl, 20 mM HEPES pH 7.2, 5 mM ATP, 10 mM phosphocreatine, 6 mM MgSO4, 10 μg/ml creatine phosphokinase (Calbiochem), 0.3 mg/ml bovine serum albumin and 50 uM of either inositol 3,4,5-trisphosphate, 4,5,6-trisphosphate or inositol 3,5,6-trisphosphate. Reactions were heat-inactivated (95° C., 3 min) and analyzed by a metal dye detection, HPLC method.
[…] (Manassas, Va.) supplied the CFPAC-1 cells and T84 cells. Recombinant human Ins(3,4,5,6)P4 1-kinase was expressed in E. coli and purified (Yang et al., “Multitasking in Signal Transduction by a Promiscuous Human Ins(3,4,5,6)P4 1-Kinase/Ins(1,3,4)P3 5/6-Kinase,” Biochem J 351: 551-555 (2000)). Non-radiolabeled Ins(1,3,4)P3 and Ins(1,3,4,5,6)P5 were purchased from CellSignals Inc (Lexington, Ky.). The details of the synthesis of non-radiolabeled Ins(3,4,5)P3, Ins(3,5,6)P3, Ins(4,5,6)P3 and Ins(3,4,6)P3 (as sodium salts) will be published separately by S.-K. C. Ins(3,4,6)P3 was also prepared by a different synthetic route (Mills et al., “Synthesis of D- and L-myo-inositol 1,4,6-trisphosphate, regioisomers of a ubiquitous second messenger,” J Org Chem 61: 8980-8987 (1996)). [^3H]Ins(1,3,4,5,6)P5 was prepared as previously described (Zhang et al., “The Transcriptional Regulator, Arg82, is a Hybrid Kinase with both Monophosphoinositol- and Diphosphoinositol-Polyphosphate Synthase Activity,” FEBS Lett 494: 208-212 (2001)). [^3H]Ins(1,3,4)P3 was prepared from [^3H]Ins(1,3,4,5)P4 (New England Nuclear) using recombinant Ins(1,4,5)P3/Ins(1,3,4,5)P4 5-phosphatase (Erneux et al., “Production of recombinant human brain type I inositol-1,4,5-trisphosphate 5-phosphatase in Escherichia coli. Lack of phosphorylation by protein kinase C,” Eur J Biochem 234: 598-602 (1995)). [^3H]Ins(1,3,4)P3 was converted to [^3H]Ins(1,3,4,6)P4 using Ins(1,3,4)P3 6-kinase activity (Yang et al., “Multitasking in Signal Transduction by a Promiscuous Human Ins(3,4,5,6)P4 1-Kinase/Ins(1,3,4)P3 5/6-Kinase,” Biochem J 351: 551-555 (2000)). [^3H]Ins(3,4)P2 was prepared by alkaline phosphatase attack on [^3H]Ins(1,3,4)P3 in 20 mM glycine (pH 9.0 with KOH). [^3H]Ins(1,4)P2 was purchased from New England Nuclear.

[3] = system: insulin granules in pancreatic β-cells; assay: Insulin granule acidification, LSG fluorescence with patch-clamp and confocal imaging; assay type: cell-based, mouse
Procedure: FIG. 6. Ins(3,4,5,6)P4 inhibits acidification of insulin granules in pancreatic β-cells. FIG. 6A, Representative time-courses for intragranular acidification, monitored by increased fluorescence of LSG before and after establishment of the standard whole-cell configuration (see arrow) and the effect of perfusion of intracellular medium (containing 0.4 μM [Ca^2+]free except where “no calcium” is indicated; see Methods) plus either 0 (“control”), 1 or 10 μM Ins(3,4,5,6)P4. FIG. 6B, Mean (±SE) fluorescence changes (n-5-11), during the 60 s that followed establishment of the standard whole-cell configuration, for cells perfused with inositol phosphates as indicated at the base of the bar graph. Where indicated, DIDS (100 μM) were added to the bath solution 30 min prior to patching the cells. Statistical significance was evaluated by Student's unpaired t-test (* P<0.01).
The inositol phosphates used in this study were all purchased from CellSignals Inc (Lexington, Ky.). Insulin granule pH were monitored by combining the patch-clamp technique with confocal imaging. Pancreatic β-cells, isolated and cultured on glass coverslips for 2-24 h, were voltage clamped at −70 mV, as previously described (B9). LysoSensor-Green™ DND-189 (1 μM; Molecular Probes, Leiden, The Netherlands) was added during the last 30 min of cell culture and was also included in the extracellular buffer (B9) that continuously perfused the experimental chamber. All LSG experiments were performed at 20° C. to prevent exocytosis that otherwise interfered with the optical measurements (15). LSG fluorescence was excited using the 488 nm-line of a Zeiss 510 confocal microscope. The emitted light was collected with a 63×/1.3 NA oil objective and a >505 nm filter. Laser scanning was performed with low pixel resolution (128×128) and with 6 s intervals to minimize photo-bleaching. After gigaseal formation, it was ascertained that LSG fluorescence was stable for at least 30 s before the experiment commenced. The intracellular electrode solution contained: 125 mM K-glutamate, 10 mM KCl, 1 0 mM NaCl, 1 mM MgCl2, 5 mM HEPES, 3 mM Mg-ATP, 0.1 mM cAMP, 10 mM EGTA and 7 mM CaCl2 (˜0.4 μM free [Ca^2+]I; pH 7.2 with KOH). In some experiments, marked “no calcium”, there was no added Ca^2+, and the concentration of EGTA was 50 μM. Whole-cell capacitance measurements (at 33° C.) were made with the cells clamped at −70 mV, and the standard whole-cell configuration was established at t=0. Capacitance recordings were made using an EPC-7 patch-clamp amplifier equipped with the software Pulse (version 8.4 and later) and the X-chart extension (HEKA Elektronik, Lambrecht/Pfalz, Germany) (B9).

[4] = target: T2, Ins(1,3,4,5,6)P5 1-phosphatase activity of Ins(3,4,5,6)P4 kinase (Homo sapiens, UniProt Q13572); assay: Inositol phosphate phosphatase activity assay with ADP (HPLC); assay type: biochemical; conditions: 5 μM Ins(1,3,4,5,6)P5, 5 mM ADP, addition of 1-5 μM Ins(1,3,4)P3
T2 construct: made in house; host or cells: E. coli
T2 sequence (Q13572 1-414): T1 sequence (Q13572 1-414)
Procedure: Ins(3,4,5,6)P4 kinase (0.4 μg) was incubated for 30 min in 100 μl phosphatase assay buffer (see Methods) either with (closed circles) or without (open circles) 5 mM ADP plus trace-amounts of either [^3H]Ins(1,3,4,5,6)P5 (panel A) [^3H]Ins(1,3,4,6)P4 (panel B), or [^3H]Ins(1,3,4,5)P4 (panel C). Samples were analyzed by HPLC (see Methods). The elution positions of Ins(1,3,4)P3 and Ins(3,4,5,6)P4 were verified with genuine standards. The elution positions of Ins(1,3,4,6)P4 (106 min, panel B) and of Ins(1,3,4,5)P4 (110 min, panel C) exclude these as products of InsP5 dephosphorylation (panel A).
Additional incubations were performed with 5 μM [^3H]Ins(1,3,4)P3 (approx. 1200 d.p.m.) plus either no Ins(1,3,4,5,6)P5 (open circles) or 5 μM non-radiolabeled Ins(1,3,4,5,6)P5 (closed circles); these reactions were assayed by HPLC (Synchropak Q100 column) and the InsP4 region of the chromatogram is shown in Panel B.
as §1

Row | Structure (SMILES) | whether the enzyme phosphorylates the inositol phosphate [2] | whole-cell Cl− current [1] | product of phosphorylation by the kinase [2] | other results
1 | O=P(O)(O)OC1[C@@H](OP(=O)(O)O)[C@@H](O)C(O)[C@H](O)[C@H]1OP(=O)(O)O (stereo partly drawn) [Ins(3,4,5)P3, inositol 3,4,5-trisphosphate] |  | 61±7 pA/pF | phosphorylated to inositol 3,4,5,6-tetrakisphosphate | 
2 | NCCCCCCNS(=O)(=O)c1cccc2c(Cl)cccc12 [W-7] |  |  |  | effect on granule acidification ([3]; treatment of the cells with calmodulin antagonist): without effect
3 | O=P(O)(O)O[C@H]1[C@H](O)[C@@H](O)[C@H](OP(=O)(O)O)[C@@H](O)[C@H]1O [Ins(1,4)P2] | not phosphorylated |  |  | 
4 | O=P(O)(O)O[C@H]1[C@H](O)[C@H](O)[C@H](OP(=O)(O)O)[C@@H](OP(=O)(O)O)[C@@H]1O [Ins(3,4,6)P3, inositol 3,4,6-trisphosphate] |  | 68±5 pA/pF | metabolized to Ins(1,3,4,5)P4 | Km ([2]; read-out: Km as kinase substrate): 0.2 µM
5 | O=P(O)(O)O[C@@H]1[C@H](O)[C@H](O)[C@@H](OP(=O)(O)O)[C@H](OP(=O)(O)O)[C@H]1O [Ins(1,3,4)P3, inositol 1,3,4-trisphosphate] |  |  |  | increase of net accumulation of Ins(3,4,5,6)P4 [4]: up to 5 fold
6 | O=P(O)(O)O[C@@H]1[C@@H](O)[C@H](OP(=O)(O)O)[C@@H](OP(=O)(O)O)[C@H](O)[C@@H]1O [Ins(3,5,6)P3, inositol 3,5,6-trisphosphate] |  | 60±6 pA/pF | phosphorylated to inositol 1,3,5,6-tetrakisphosphate | 
7 | O=P(O)(O)OC1C(O)C(O)C(O)C(OP(=O)(O)O)C1OP(=O)(O)O (stereo not drawn) [Ins(4,5,6)P3, inositol 4,5,6-trisphosphate] |  | 56±7 pA/pF | phosphorylated to inositol 1,4,5,6-tetrakisphosphate | 

Now from value to molecule, other results behind:

Row | whether the enzyme phosphorylates the inositol phosphate [2] | Structure (SMILES) | whole-cell Cl− current [1] | product of phosphorylation by the kinase [2] | other results
8 | does not phosphorylate | O=P(O)(O)O[C@H]1[C@H](OP(=O)(O)O)[C@@H](OP(=O)(O)O)[C@@H](O)[C@@H](O)[C@@H]1OP(=O)(O)O [Ins(1,4,5,6)P4, inositol 1,4,5,6-tetrakisphosphate] |  |  | effect on vesicle acidification ([3]; 100 μM): neither 100 μM Ins(1,4,5,6)P4 nor 100 μM Ins(1,3,4,5,6)P5 affected
9 | does not phosphorylate | O=P(O)(O)O[C@H]1[C@H](O)[C@@H](OP(=O)(O)O)[C@H](OP(=O)(O)O)[C@@H](OP(=O)(O)O)[C@H]1O [Ins(1,3,4,5)P4] |  |  | 
